The test deals with T1, recombinant human 5-lipoxygenase (Homo sapiens, UniProt P09917).
T1 construct: made in house; host or cells: Sf9 cells infected with recombinant baculovirus rvH5LO (8-1)
T1 sequence (P09917 1-674): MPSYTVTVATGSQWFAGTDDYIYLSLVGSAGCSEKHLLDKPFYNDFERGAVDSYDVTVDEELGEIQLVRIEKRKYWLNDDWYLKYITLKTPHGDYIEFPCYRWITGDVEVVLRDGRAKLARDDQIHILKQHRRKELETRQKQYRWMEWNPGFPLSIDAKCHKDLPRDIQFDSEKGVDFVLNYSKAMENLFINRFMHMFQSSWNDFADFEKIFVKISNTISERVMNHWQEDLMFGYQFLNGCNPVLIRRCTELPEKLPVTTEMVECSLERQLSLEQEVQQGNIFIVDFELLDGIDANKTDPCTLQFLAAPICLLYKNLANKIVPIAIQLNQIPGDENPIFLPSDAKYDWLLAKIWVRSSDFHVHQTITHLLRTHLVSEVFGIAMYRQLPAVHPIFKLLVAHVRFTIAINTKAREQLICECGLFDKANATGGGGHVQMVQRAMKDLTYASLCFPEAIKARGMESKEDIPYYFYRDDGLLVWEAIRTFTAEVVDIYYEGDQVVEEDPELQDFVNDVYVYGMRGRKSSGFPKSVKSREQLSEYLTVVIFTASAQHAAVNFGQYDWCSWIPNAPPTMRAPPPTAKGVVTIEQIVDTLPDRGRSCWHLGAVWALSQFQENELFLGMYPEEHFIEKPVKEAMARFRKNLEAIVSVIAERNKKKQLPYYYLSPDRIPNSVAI
As to the kind of experiment: Human 5-Lipoxygenase Enzyme Assay. The format is biochemical. Conditions: spectrophotometric assay, purified recombinant human 5-lipoxygenase, 20 μM arachidonic acid. As for the experimental part:
Compounds of this invention can be tested using the following assays to determine their mammalian leukotriene biosynthesis inhibiting activity.
Human 5-Lipoxygenase Enzyme Assay
The activity of 5-lipoxygenase was measured using a spectrophotometric assay and recombinant human 5-lipoxygenase as a source of enzyme. Human 5-lipoxygenase was purified from Sf9 cells infected with the recombinant baculovirus rvH5LO (8-1) containing the coding sequence for human 5-lipoxygenase as described by Percival et al., (Eur. J. Biochem 210, 109-117, 1992). The enzymatic activity was measured using a spectrophotometric assay from the optimal rate of conjugated diene formation (absorbance at 238 nm) using the procedure described in Riendeau et al. (Biochem. Pharmacol. 38, 2313-2321, 1989) with minor modifications. The incubation mixture contained 25 mM potassium phosphate, pH 7.5, 0.1 mM EDTA, 0.3 mM CaCl2, 24 μg/ml phosphatidylcholine, 0.1 mM ATP, 0.5 mM DTT, 20 μM arachidonic acid (2 μl from a 100-fold solution in ethanol), inhibitor (2 μl aliquot from a 100-fold solution in DMSO) and an aliquot of purified 5-lipoxygenase. Reactions were initiated by the addition of the purified 5-lipoxygenase and the rate of conjugated diene production was followed for 5 minutes at room temperature. The reaction was performed in a Costar UV plate (Cat. # 3635) and the absorbance changes at 238 nm were recorded with a Molecular Devices UV/VIS 96 well spectrophotometer (Spectra Max 190) using SOFTmax PRO software. Enzymatic activity was calculated from the optimal rate of the reaction by a linear fit of the increase in absorbance at 238 nm over 36 seconds. When the rate of diene formation is low (<0.01 Absorbance Unit/min) the linear fit is performed over 180 seconds.

One may read the IC50 as the concentration that gives 50% inhibition. On to `CC[C@](O)(c1cn(Cc2ccc3c(-c4cccc(F)c4)cc(=O)oc3c2)nn1)C(F)(F)F` [Example 1, (S)-4-(3-fluorophenyl)-7-({4-[1-hydroxy-1-(trifluoromethyl)propyl]-1H-1,2,3-triazol-1-yl}methyl)-2H-chromen-2-one], for which the IC50 amounted to 38 nM.

For the compound `CC[C@](O)(c1cn(Cc2ccc3c(-c4ccc(F)cc4)cc(=O)oc3c2)nn1)C(F)(F)F` [Example 2, (S)-4-(4-Fluorophenyl)-7-[4-(1-hydroxy-1-trifluoromethyl-propyl)-[1,2,3]triazol-1-ylmethyl]-chromen-2-one], the half-inhibitory concentration (IC50) was 50 nM. For `CC[C@](O)(c1cn(Cc2ccc3c(-c4ccccc4F)cc(=O)oc3c2)nn1)C(F)(F)F` [Example 3, (S)-4-(2-Fluoro-phenyl)-7-[4-(1-hydroxy-1-trifluoromethyl-propyl)-[1,2,3]triazol-1-ylmethyl]-chromen-2-one] the value was 1210 nM. As to `CC[C@](O)(c1cn(Cc2ccc3c(-c4ccccc4)cc(=O)oc3c2)nn1)C(F)(F)F` [Example 5, (S)-7-[4-(1-Hydroxy-1-trifluoromethyl-propyl)-[1,2,3]triazol-1-ylmethyl]-4-phenyl-chromen-2-one], the concentration for half-maximal inhibition (IC50) was 45 nM.

`CC[C@](O)(c1cn(Cc2ccc3c(-c4ccsc4)cc(=O)oc3c2)nn1)C(F)(F)F` [Example 8, (S)-7-[4-(1-Hydroxy-1-trifluoromethyl-propyl)-[1,2,3]triazol-1-ylmethyl]-4-thiophen-3-yl-chromen-2-one]: the IC50 turned out to be 50 nM. Regarding `CCC(O)(CC)c1cn(Cc2ccc3c(-c4cccc(F)c4)cc(=O)oc3c2)nn1` [Example 12, 7-[4-(1-Ethyl-1-hydroxy-propyl)-[1,2,3]triazol-1-ylmethyl]-4-(3-fluoro-phenyl)-chromen-2-one], the half-maximal inhibitory concentration (IC50) was found to be 324 nM.

`CCC(O)(CC)c1cn(Cc2ccc3c(-c4ccc(F)cc4)cc(=O)oc3c2)nn1` [Example 16, 7-[4-(1-Ethyl-1-hydroxy-propyl)-[1,2,3]triazol-1-ylmethyl]-4-(4-fluoro-phenyl)-chromen-2-one]: the IC50 came out at 442 nM. Take `O=c1cc(-c2cccc(F)c2)c2ccc(Cn3cc(Cc4ccccc4)nn3)cc2o1` [Example 22, 7-[(4-benzyl-1H-1,2,3-triazol-1-yl)methyl]-4-(3-fluorophenyl)-2H-chromen-2-one]: the IC50 turned out to be 951 nM. Take `O=c1cc(-c2ccc(F)cc2)c2ccc(Cn3cc(C(O)(C4CC4)C4CC4)nn3)cc2o1` [Example 26, 7-[4-(Dicyclopropyl-hydroxy-methyl)-[1,2,3]triazol-1-ylmethyl]-4-(4-fluoro-phenyl)-chromen-2-one]: the IC50 came to 98 nM. With `CCC(O)(c1nnn(Cc2ccc3c(-c4cccc(F)c4)cc(=O)oc3c2)c1C)C(F)(F)F` (stereo not drawn) [Example 27, 4-(3-fluorophenyl)-7-{[4-(1-hydroxy-1-(trifluoromethyl)propyl)-5-methyl-1H-1,2,3-triazol-1-yl}methyl]-2H-chromen-2-one], the IC50 is 298 nM. `CCCC(O)(c1cn(Cc2ccc3c(-c4cccc(F)c4)cc(=O)oc3c2)nn1)C(F)(F)F` (stereo not drawn) [Example 30, 4-(3-Fluorophenyl)-7-({4-[1-hydroxy-1-(trifluoromethyl)butyl]-1H-1,2,3-triazol-1-yl}methyl)-2H-chromen-2-one]: the IC50 came to 37 nM.

With `CC[C@](O)(c1cn(Cc2ccc3c(-c4coc(C)n4)cc(=O)oc3c2)nn1)C(F)(F)F` [Example 37, (S)-7-({4-[1-hydroxy-1-(trifluoromethyl)propyl]-1H-1,2,3-triazol-1-yl}methyl)-4-(2-methyl-1,3-oxazol-4-yl)-2H-chromen-2-one], the IC50 turned out to be 351 nM. Turning to `CC[C@](O)(c1cn(Cc2ccc3c(-c4ccccc4)cc(C#N)nc3c2)nn1)C(F)(F)F` [Example 39, (S)-7-({4-[1-hydroxy-1-(trifluoromethyl)propyl]-1H-1,2,3-triazol-1-yl}methyl)-4-phenylquinoline-2-carbonitrile], the concentration for half-maximal inhibition (IC50) was 34 nM. Turning to `CC[C@](O)(c1cn(Cc2ccc3c(-c4cccc(F)c4)cc(C#N)nc3c2)nn1)C(F)(F)F` [Example 40, (S)-4-(3-fluorophenyl)-7-({4-[1-hydroxy-1-(trifluoromethyl)propyl]-1H-1,2,3-triazol-1-yl}methyl)quinoline-2-carbonitrile], the half-maximal inhibitory concentration (IC50) is 54 nM. Turning to `CC[C@](O)(c1cn(Cc2ccc3c(-c4ccc(F)cc4)cc(C#N)nc3c2)nn1)C(F)(F)F` [Example 41, (S)-4-(4-fluorophenyl)-7-({4-[1-hydroxy-1-(trifluoromethyl)propyl]-1H-1,2,3-triazol-1-yl}methyl)quinoline-2-carbonitrile], the IC50 came out at 51 nM. In the case of `CCC(O)(CC)c1cn(Cc2ccc3c(-c4ccccc4)cc(C#N)nc3c2)nn1` [Example 43, 7-{[4-(1-ethyl-1-hydroxypropyl)-1H-1,2,3-triazol-1-yl]methyl}-4-phenylquinoline-2-carbonitrile], the IC50 came to 275 nM.

Consider `N#Cc1cc(-c2ccc(F)cc2)c2ccc(Cn3cc(C(O)(C4CC4)C4CC4)nn3)cc2n1` [Example 46, 7-({4-[dicyclopropyl(hydroxy)methyl]-1H-1,2,3-triazol-1-yl}methyl)-4-(4-fluorophenyl)quinoline-2-carbonitrile], for which the IC50 was 103 nM. For `N#Cc1cc(-c2cccc(F)c2)c2ccc(Cn3cc(C(O)(C4CC4)C4CC4)nn3)cc2n1` [Example 47, 7-({4-[dicyclopropyl(hydroxy)methyl]-1H-1,2,3-triazol-1-yl}methyl)-4-(3-fluorophenyl)-quinoline-2-carbonitrile] the value was 62 nM; for `N#Cc1cc(-c2ccccc2)c2ccc(Cn3cc(C(O)(C4CC4)C4CC4)nn3)cc2n1` [Example 48, 7-({4-[dicyclopropyl(hydroxy)methyl]-1H-1,2,3-triazol-1-yl}methyl)-4-phenylquinoline-2-carbonitrile], 82 nM; for `CC[C@](O)(c1cn(Cc2ccc3c(-c4cc(Cl)cc(Cl)c4)cc(C#N)nc3c2)nn1)C(F)(F)F` [Example 57, (S)-4-(3,5-dichlorophenyl)-7-({4-[1-hydroxy-1-(trifluoromethyl)propyl]-1H-1,2,3-triazol-1-yl}methyl)quinoline-2-carbonitrile], 86 nM. Turning to `CC[C@](O)(c1cn(Cc2ccc3c(-c4cc(F)cc(F)c4)cc(C#N)nc3c2)nn1)C(F)(F)F` [Example 58, (S)-4-(3,5-difluorophenyl)-7-({4-[1-hydroxy-1-(trifluoromethyl)propyl]-1H-1,2,3-triazol-1-yl}methyl)quinoline-2-carbonitrile], the half-inhibitory concentration (IC50) came out at 52 nM.

Take `CC[C@](O)(c1cn(Cc2ccc3c(-c4ccccc4)cc(C(N)=O)nc3c2)nn1)C(F)(F)F` [Example 69, (S)-7-({4-[1-hydroxy-1-(trifluoromethyl)propyl]-1H-1,2,3-triazol-1-yl}methyl)-4-phenylquinoline-2-carboxamide]: the half-maximal inhibitory concentration (IC50) worked out at 35 nM. In the case of `CC[C@](O)(c1cn(Cc2ccc3c(-c4ccc(F)cc4)cc(N(C)C)nc3c2)nn1)C(F)(F)F` [Example 87, (S)-2-(1-{[2-(dimethylamino)-4-(4-fluorophenyl)quinolin-7-yl]methyl}-1H-1,2,3-triazol-4-yl)-1,1,1-trifluorobutan-2-ol], the IC50 turned out to be 17 nM.

As to `CC[C@](O)(c1cn(Cc2ccc3c(-c4ccc(F)cc4)cc(OC)nc3c2)nn1)C(F)(F)F` [Example 88, (S)-1,1-trifluoro-2-(1-{[4-(4-fluorophenyl)-2-methoxyquinolin-7-yl]methyl}-1H-1,2,3-triazol-4-yl)butan-2-ol], the IC50 was 41 nM.
